Experimental data reported in US7713994B2 (Wyeth LLC, priority 2005, dated 2010).
Where two headings read alike, the source gives them in different places.

Tests used:
cyclin B/CDK1 enzyme = molecular target: T1, cyclin B/CDK1 enzyme (Homo sapiens, UniProt P06493); test: CDK1 ELISA kinase assay (phospho-Rb ser 795 detection); assay type: biochemical
T1 construct: purchased New England BioLabs; host or cells: Sf9 insect cells, recombinant baculovirus
How it was run: (§1)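 Inhibition was derived from A450 relative to control wells lacking compound, following an anti-phospho-Rb Ser795 sandwich of HRP detection. The reactions combined coated GST-Rb fragment, 200 μM ATP and baculovirus-expressed cyclin/CDK enzymes, incubated for 1 h at 30° C.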

BT474 = test: Cytotoxicity assay (SRB), BT474; assay type: cell-based
How it was run: (§2)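 Overnight-seeded monolayers (4000–12000 cells/well by line) receive compound in 5% FBS medium at 37 °C, 7% CO2. After 3 d, or 6 d for BT474, cellular protein is fixed with cold TCA, stained with SRB and read at 540 nm against untreated wells.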

HCT-116 = test: Cytotoxicity assay (SRB), HCT-116; assay type: cell-based; conditions: HCT116 cells, SRB, read-out: In Vitro Cellular Activity IC50 HCT116
How it was run: as §2

[1] = I.V. and P.O. Dosing in Mice; assay type: in vivo; conditions: for AUC(0-inf) / bioavailability: mouse, in vivo; for bioavailability: po 50 mg/kg vs i.v. 2 mg/kg
MCF-7 = test: Cytotoxicity assay (SRB), MCF-7; assay type: cell-based; conditions: MCF-7 cells, SRB, read-out: In Vitro Cellular Activity IC50 MCF-7
How it was run: as §2

cyclin E/CDK2 enzyme = molecular target: T2, cyclin E/CDK2 enzyme (Homo sapiens, UniProt P24941); test: CDK2 ELISA kinase assay (phospho-Rb ser 795 detection); assay type: biochemical
T2 construct: made in house; host or cells: Sf9 insect cells, recombinant baculovirus
How it was run: as §1

LoVo = test: Cytotoxicity assay (SRB), LoVo; assay type: cell-based; conditions: LoVo cells, SRB, read-out: In Vitro Cellular Activity IC50 LOVO
How it was run: as §2

cyclin D1/cdk 4 enzyme = molecular target: T3, cyclin D1/cdk 4 enzyme (Homo sapiens, UniProt P11802); test: CDK4 ELISA kinase assay (phospho-Rb ser 795 detection); assay type: biochemical
T3 construct: made in house; host or cells: Sf9 insect cells, recombinant baculovirus
T3 sequence (P11802 whole entry, species assumed): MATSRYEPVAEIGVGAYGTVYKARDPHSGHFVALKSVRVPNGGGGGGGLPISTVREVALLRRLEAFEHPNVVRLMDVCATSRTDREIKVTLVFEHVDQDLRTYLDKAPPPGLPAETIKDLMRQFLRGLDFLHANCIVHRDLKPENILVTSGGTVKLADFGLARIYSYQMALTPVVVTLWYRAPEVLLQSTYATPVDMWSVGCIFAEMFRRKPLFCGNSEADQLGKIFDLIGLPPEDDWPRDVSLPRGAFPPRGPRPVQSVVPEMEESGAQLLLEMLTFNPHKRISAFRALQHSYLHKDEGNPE
T3 sequence (P24385 whole entry partner, species assumed): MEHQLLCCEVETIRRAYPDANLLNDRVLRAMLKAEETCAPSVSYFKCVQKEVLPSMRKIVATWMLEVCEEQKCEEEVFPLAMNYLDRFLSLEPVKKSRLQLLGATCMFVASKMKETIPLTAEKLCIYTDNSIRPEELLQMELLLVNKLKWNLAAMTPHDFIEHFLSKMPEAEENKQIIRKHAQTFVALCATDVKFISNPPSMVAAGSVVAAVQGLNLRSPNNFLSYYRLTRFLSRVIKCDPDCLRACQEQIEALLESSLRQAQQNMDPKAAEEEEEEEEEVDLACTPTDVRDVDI
How it was run: as §1

SK-UT-1B = test: In Vitro Cellular Activity (Table III), SK-UT-1B; assay type: cell-based; conditions: SK-UT-1B cells
[2] = In Vitro Enzyme Assay, cyclin B/CDK1, read-out: CDK1 IC50
[3] = Homo sapiens, BT-474, 144 h, BT474 cells, 6 days, SRB; read-out: In Vitro Cellular Activity IC50 BT474
[4] = Homo sapiens, HCT-116, 72 h, 3 days
[5] = iv, 2 mg/kg, dose i.v. 2 mg/kg, read-out: aucinf obs (i.v.)
[6] = po, 50 mg/kg, dose po 50 mg/kg, read-out: aucinf obs (po)
[7] = Homo sapiens, MCF7, 72 h, 3 days
[8] = In Vitro Enzyme Assay, cyclin E/CDK2, read-out: CDK2 IC50
[9] = Homo sapiens, LoVo, 72 h, 3 days
[10] = In Vitro Enzyme Assay, cyclin D1/cdk 4, read-out: CDK4 IC50
[11] = Homo sapiens, BT-474, 144 h, BT474 cells, SRB, 6 days; read-out: In Vitro Cellular Activity IC50 BT474
[12] = Homo sapiens, HCT-116, 72 h, three days
[13] = Homo sapiens, MCF7, 72 h, three days
[14] = Homo sapiens, LoVo, 72 h, three days
[15] = In Vitro Enzyme Assays, read-out: CDK1 IC50

T1 sequence (P06493 whole entry): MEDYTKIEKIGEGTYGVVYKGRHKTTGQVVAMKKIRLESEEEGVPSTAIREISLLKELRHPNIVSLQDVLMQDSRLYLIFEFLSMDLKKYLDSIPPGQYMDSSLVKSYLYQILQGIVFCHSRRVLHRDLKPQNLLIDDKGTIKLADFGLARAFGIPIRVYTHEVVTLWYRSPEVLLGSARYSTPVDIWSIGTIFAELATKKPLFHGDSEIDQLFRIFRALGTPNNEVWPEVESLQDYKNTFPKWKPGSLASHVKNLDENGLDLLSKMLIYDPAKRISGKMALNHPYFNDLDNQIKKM
T1 sequence (P14635 whole entry partner): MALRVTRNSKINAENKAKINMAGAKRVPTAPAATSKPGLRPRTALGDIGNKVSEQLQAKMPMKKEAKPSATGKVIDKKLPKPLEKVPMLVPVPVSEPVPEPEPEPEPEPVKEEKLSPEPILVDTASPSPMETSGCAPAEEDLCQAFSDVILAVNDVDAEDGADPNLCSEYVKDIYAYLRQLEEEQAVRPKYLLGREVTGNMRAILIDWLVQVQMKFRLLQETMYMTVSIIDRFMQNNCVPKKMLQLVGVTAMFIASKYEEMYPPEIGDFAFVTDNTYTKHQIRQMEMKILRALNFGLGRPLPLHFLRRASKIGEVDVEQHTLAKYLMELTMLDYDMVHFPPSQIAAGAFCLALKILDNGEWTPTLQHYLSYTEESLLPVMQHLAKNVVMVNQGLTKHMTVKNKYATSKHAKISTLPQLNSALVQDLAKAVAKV

Compound | melting point | IC50 (cyclin B/CDK1 enzyme; [2]) | IC50 (BT474; [3]) | IC50 (HCT-116; [4]) | Cl_obs ([1]; dose i.v. 2 mg/kg) | Vss_obs ([1]; dose i.v. 2 mg/kg) | HL_Lambda_z ([1]; dose po 50 mg/kg) | AUC(0-inf) [1, 5] | AUC(0-inf) [1, 6] | bioavailability ([1]; po, 50 mg/kg) | IC50 (MCF-7; [7]) | IC50 (cyclin E/CDK2 enzyme; [8]) | IC50 (LoVo; [9]) | IC50 (cyclin D1/cdk 4 enzyme; [10]) | other results
CC(C)(C)c1ccc2c(c1)/C(=C/NCc1cc(O)c(-c3ccccc3)cn1)C(=O)NC2=O [Example 531, 6-tert-Butyl-4-{[(4-hydroxy-5-phenyl-pyridin-2-ylmethyl)-amino]-methylene}-4H-isoquinoline-1,3-dione] | 195 to 218 °C (dec.) | 16.3 µM | 0.04 µM | 0.15 µM | 23 mL/min/kg | 0.9 L/kg | 5.2 h | 1450 ng·h/mL | 879 ng·h/mL | 2.5% | 0.7 µM | 2.6 µM | 0.1 µM | – | –
CCCOc1cnc(CN/C=C2\C(=O)NC(=O)c3ccc(C(C)(C)C)cc32)cc1O [Example 530, 6-tert-Butyl-4-{[(4-hydroxy-5-propoxy-pyridin-2-ylmethyl)-amino]-methylene}-4H-isoquinoline-1,3-dione] | 162 to 178 °C (dec.) | – | 0.24 µM | 0.43 µM | 15 mL/min/kg | 0.2 L/kg | 5.3 h | 2240 ng·h/mL | 7200 ng·h/mL | 13% | 0.7 µM | 0.96 µM | 0.28 µM | – | –
O=C1NC(=O)c2ccc(I)cc2/C1=C/NCc1cc(O)c(-c2ccccc2)cn1 [Example 524, (4Z)-{[(4-Hydroxy-5-phenyl-pyridin-2-ylmethyl)-amino]-methylene}-6-iodo-4H-isoquinoline-1,3-dione] | 292 to 293 °C (dec.) | 27.9 µM | 0.03 µM | 0.11 µM | 35 mL/min/kg | 2.4 L/kg | – | 952 ng·h/mL | – | 0% | 0.89 µM | 2.2 µM | 0.12 µM | 0.04 µM | –
O=C1NC(=O)c2ccccc2/C1=C/Nc1cccc(CCN2CCCC2)c1 [Example 22, (4Z)-4-({[3-(2-Pyrrolidin-1-ylethyl)phenyl]amino}methylene)isoquinoline-1,3(2H,4H)-dione] | – | – | – | – | – | – | – | – | – | – | – | – | – | – | IC50 (SK-UT-1B; Homo sapiens, Skut1B): 5.4 µM; IC50 (BT474; [11]): 21 µM; IC50 (HCT-116; [12]): 11 µM; IC50 (MCF-7; [13]): 10 µM; IC50 (LoVo; [14]): 19 µM
CCCOc1cnc(CN/C=C2\C(=O)NC(=O)c3ccc(C4CCCC4)cc32)cc1O [Example 538, 6-Cyclopentyl-4-{[(4-hydroxy-5-propoxy-pyridin-2-ylmethyl)-amino]-methylene}-4H-isoquinoline-1,3-dione] | 263 to 266 °C (dec.) | – | 0.06 µM | 0.15 µM | 5 mL/min/kg | 0.2 L/kg | 7.1 h | 6630 ng·h/mL | 1040 ng·h/mL | 0.63% | 0.3 µM | 1.2 µM | 0.07 µM | – | –
O=C1NC(=O)c2ccc(I)cc2/C1=C/NCc1cc(O)c(-c2ccoc2)cn1 [Example 527, (4Z)-{[(5-Furan-3-yl-4-hydroxy-pyridin-2-ylmethyl)-amino]-methylene}-6-iodo-4H-isoquinoline-1,3-dione] | 213 to 228 °C (dec.) | 13.5 µM | 0.09 µM | 0.55 µM | 5 mL/min/kg | 0.5 L/kg | 3.4 h | 6060 ng·h/mL | 1400 ng·h/mL | 0.9% | 2.7 µM | 2.3 µM | 0.49 µM | 0.03 µM | –
CN1CCN(c2ccc(N/C=C3\C(=O)NC(=O)c4ccccc43)cc2)CC1 [compound 4] | – | – | – | – | – | – | – | – | – | – | – | – | – | – | IC50 (SK-UT-1B; Homo sapiens, Skut1B): 12.7 µM; IC50 (cyclin B/CDK1 enzyme; [15]): > 28 µM; IC50 (BT474; [11]): 18 µM; IC50 (HCT-116; [12]): 9.1 µM; IC50 (MCF-7; [13]): 5.5 µM; IC50 (LoVo; [14]): 13 µM
CN1CCN(c2ccc(N/C=C3\C(=O)NC(=O)c4ccc(-c5ccsc5)cc43)cc2)CC1 [Example 107, (4Z)-4-({[4-(4-Methylpiperazin-1-yl)phenyl]amino}methylene)-6-thien-3-ylisoquinoline-1,3(2H,4H)-dione] | 224 to 226 °C | – | – | – | 37 mL/min/kg | 11 L/kg | 7.4 h | 901 ng·h/mL | 4100 ng·h/mL | 18.2% | – | – | – | – | IC50 (cyclin D1/cdk 4 enzyme; In Vitro Enzyme Assays, 200 μM ATP, read-out: CDK4 IC50): 0.08 µM; IC50 (cyclin B/CDK1 enzyme; [15]): > 50 µM; IC50 (BT474; [11]): 2.5 µM; IC50 (HCT-116; [12]): 1.4 µM; IC50 (MCF-7; [13]): 2.3 µM; IC50 (cyclin E/CDK2 enzyme; In Vitro Enzyme Assays, read-out: CDK2 IC50): > 50 µM; IC50 (LoVo; [14]): 2.3 µM
O=C1NC(=O)c2ccc(I)cc2/C1=C/NCc1ccn(-c2ccoc2)c(=O)c1 [Example 525, (4Z)-4-[({[1-(3-Furyl)-2-oxo-1,2-dihydropyridin-4-yl]methyl}amino)methylene]-6-iodoisoquinoline-1,3(2H,4H)-dione] | – | 11.6 µM | 0.14 µM | 0.71 µM | 12 mL/min/kg | 0.4 L/kg | 3.4 h | 2750 ng·h/mL | 12000 ng·h/mL | 17% | 0.71 µM | 2.6 µM | 0.45 µM | 0.06 µM | –
(4Z)-4-[({3-Chloro-4-{(4chlorobenzyl)oxy]phenyl}amino)methylene]isoquinoline-1,3(2H,4H-dione [Example 15] | – | – | – | – | – | – | – | – | – | – | – | – | – | – | IC50 (SK-UT-1B): 11.6 µM; IC50 (BT474; BT474 cells, SRB, 6 days; read-out: In Vitro Cellular Activity IC50 BT474): > 50 µM; IC50 (HCT-116; three days): 10.3 µM; IC50 (MCF-7; three days): 28 µM; IC50 (LoVo; three days): 50 µM
CC(C)(C)c1ccc2c(c1)/C(=C/NCc1ccc(-c3ccoc3)c(O)c1)C(=O)NC2=O [Example 535, 6-tert-Butyl-4-[(4-furan-3-yl-3-hydroxy-benzylamino)-methylene]-4H-isoquinoline-1,3. -dione] | – | 13.1 µM | 0.51 µM | 0.86 µM | 140 mL/min/kg | 4.1 L/kg | 1.9 h | 238 ng·h/mL | 1240 ng·h/mL | 21% | 2 µM | 4 µM | 0.63 µM | 0.02 µM | –
